This is an account of results in patent US4659717A, “Dihydropyridines useful in the treatment of angina and stroke” (Eli Lilly and Company, priority 1985, dated 1987).

By pIC50 is commonly meant the IC50 on a negative log10 scale, so that one unit is a factor of ten. A high value points to a low IC50.

pIC50: −log10 of the molar value.

This test has as its system Dog Coronary Artery. In words: Dog coronary artery test: relaxation of KCl-contracted coronary artery rings. It counts as cell-based. Particulars: coronary artery rings contracted with 50 mM KCl, 37° C., IC50 = 50% relaxation, mean values, probit analysis; for pIC50: Canis lupus familiaris. As to the method: Mongrel dogs of either sex and weighing 15 to 30 kg were anesthetized with pentobarbital (35 mg/kg). Each heart was quickly removed through a right thoracotomy and placed in Kreb's bicarbonate solution of the following composition (mM/L): NaCl, 118.2; KCl, 4.6; CaCl2.2H2 O, 1.6; KH2 PO4, 1.2; MgSO4.7H2 O, 1.2; NaHCO3, 24.8; and dextrose, 10.0. The medium was kept at room temperature and saturated with 95% O2 /5% CO2. The left anterior descending and circumflex coronary arteries were isolated and used either immediately or stored overnight at 5° C. Arteries were cut into rings approximately 2 to 3 mm wide, placed on 2 L-shaped hooks and mounted in a 10 ml organ bath by attaching one hook to a stationary glass rod and the other hook to a force-displacement transducer. Tissue medium consisted of Kreb's bicarbonate solution maintained at 37° C. and bubbled with 95 % O2 /5% CO2. Artery rings were equilibrated for 1-2 hours under a resting tension of 3 g. Tissue medium was then changed to one containing 50 mM KCl and 72.8 mM NaCl but otherwise identical to Kreb's bicarbonate solution. After tissues achieved a steady state contractile tension (1-2 hours) a given test agent was added to each bath and concentration-response curves determined. […] At the end of the concentration-response curve, tissue medium was changed to one identical to the 50 mM KCl buffer but containing 2.5 mM EGTA and no CaCl2.2H2 O to obtain complete relaxation of the tissue. Percent relaxation was then determined for each concentration and values producing 50% relaxation (IC50) were estimated using a probit analysis.

Consider `CCOC(=O)C1=C(C)NC(C)=C(C(=O)OCC)C1c1csc2c([N+](=O)[O-])cccc12` [Example 25, 1,4-Dihydro-2,6-dimethyl-4-(7-nitrobenzo[b]thien-3-yl)-3,5-pyridinedicarboxylic acid, diethyl ester], for which the negative-log IC50 (pIC50) was 5.77.
In turn, `CCOC(=O)C1=C(C)NC(C)=C(C(=O)OCC)C1c1csc2ccc(Cl)cc12` [Example 4, 4-(5-Chlorobenzo[b]thien-3-yl)-1,4-dihydro-2,6-dimethyl-3,5-pyridinedicarboxylic acid, diethyl ester] gave a pIC50 of 5.50.
With `COC(=O)C1=C(C)NC(C)=C(C(=O)OCCC#N)C1c1csc2ccccc12` (stereo not shown) [Example 35, 4-Benzo[b]thien-3-yl-1,4-dihydro-2,6-dimethyl-3,5-pyridinecarboxylic acid, 2-cyanoethyl methyl ester], the negative logarithm of the IC50 (pIC50) was 6.60.
Turning to `CCC(C)OC(=O)C1=C(C)NC(C)=C(C(=O)OC)[C@@H]1c1csc2ccccc12` (stereo partly drawn) [Example 36, (S)-4-benzo[b]thien-3-yl-1,4-dihydro-2,6-dimethyl-3,5-pyridinedicarboxylicacid, methyl 1-methylpropyl ester], the “-log IC50” value is recorded as 5.7.
As for `CC[C@H](C)OC(=O)C1=C(C)NC(C)=C(C(=O)OC)C1c1csc2ccncc12` (stereo partly drawn) [Example 40, 1,4-Dihydro-2,6-dimethyl-4-thieno[3,2-c]pyridin-3-yl-3,5-pyridinedicarboxylic acid, methyl(S)-1-methylpropyl ester], the negative logarithm of the IC50 (pIC50) was 7.48.
The same measure, in the same setting: then `C=CCOC(=O)C1=C(C)NC(C)=C(C(=O)OC)C1c1csc2ccncc12` (stereo not shown) [Example 50, 1,4-Dihydro-2,6-dimethyl-4-thieno[3,2-c]pyridin-3-yl-3,5-pyridinecarboxylic acid, methyl 2-propenyl ester], with 7.39.
The compound `CCOC(=O)C1=C(C)NC(C)=C(C(=O)OCC)C1c1csc2cccnc12` [Example 11, 1,4-Dihydro-2,6-dimethyl-4-thieno[3,2-b]pyridin-3-yl-3,5-pyridinedicarboxylic acid, diethyl ester] showed a pIC50 of 6.90.
Same read-out and setting: the result for `CCOC(=O)C1=C(C)NC(C)=C(C(=O)OCC)C1c1cc2cnccc2s1` [Example 2, 1,4-Dihydro-2,6-dimethyl-4-(thieno[3,2-c]pyridin-2-yl)-3,5-pyridinedicarboxylic acid, diethyl ester] reads 4.97; that for `CC1=C(C(=O)OCCN(C)Cc2ccccc2)C(c2csc3ccccc23)C(C(=O)OCCN(C)Cc2ccccc2)=C(C)N1` [Example 32], 4.67.
On the same count and under the same terms, the result for `COC(=O)C1=C(C)NC(C)=C(C(=O)OC(C)C)C1c1csc2cnccc12` (stereo not shown) [Example 41, 1,4-Dihydro-2,6-dimethyl-4-thieno[2,3-c]pyridin-3-yl-3,5-pyridinedicarboxylic acid, monomethyl mono(1-methylethyl)ester] reads 7.49; that for `COC(=O)C1=C(C)NC(C)=C(C(=O)OC(C)C)C1c1csc2ccccc12` (stereo not shown) [Example 38, 4-Benzo[b]thien-3-yl-1,4-dihydro-2,6-dimethyl-3,5-pyridinedicarboxylic acid, methyl 1-methylethyl ester], 6.60.
Still for that read-out and setting: then `COCCOC(=O)C1=C(C)NC(C)=C(C(=O)OC(C)C)C1c1csc2ccccc12` (stereo not shown) [Example 39, 4-Benzo[b]thien-3-yl-1,4-dihydro-2,6-dimethyl-3,5-pyridinedicarboxylic acid, 2-methoxyethyl 1-methylethyl ester], with 6.05; and `COCCOC(=O)C1=C(C)NC(C)=C(C(=O)OC)C1c1csc2ccncc12` (stereo not shown) [Example 21, 1,4-Dihydro-2,6-dimethyl-4-thieno[3,2-c]pyridine-3-yl-3,5-pyridinedicarboxylic acid, 3-methyl 5-(2-methoxyethyl)ester], with 7.21.
Turning to `CC1=C(C(=O)OC(C)C)C(c2csc3ccncc23)C(C(=O)OC(C)C)=C(C)N1` [Example 7, 1,4-Dihydro-2,6-dimethyl-4-thieno[3,2-c]pyridin-3-yl-3,5-pyridinedicarboxylic acid, diisopropyl ester], the negative logarithm of the IC50 (pIC50) was 6.40.
Still for that read-out and setting: the result for `CCOC(=O)C1=C(C)NC(C)=C(C(=O)OCC)C1c1c(SC)sc2ccccc12` [Example 15, 1,4-Dihydro-2,6-dimethyl-4-[2-(methylthio)benzo[b]thien-3-yl]-3,5-pyridinedicarboxylic acid, diethyl ester] reads 5.56; that for `COC(=O)C1=C(C)NC(C)=C(C(=O)OCC2CC2)C1c1csc2ccncc12` (stereo not shown) [Example 51, 1,4-Dihydro-2,6-dimethyl-4-thieno[3,2-c]pyridin-3-yl-3,5-pyridinedicarboxylic acid, cyclopropylmethyl methyl ester], 8.12.
`CCC(C)OC(=O)C1=C(C)NC(C)=C(C(=O)OC)[C@H]1c1csc2ccncc12` (stereo partly drawn) [Example 42, (R)-1,4-Dihydro-2,6-dimethyl-4-thieno[3,2-c]pyridin-3-yl-3,5-pyridinedicarboxylic acid, methyl 1-methylpropyl ester] had a negative-log IC50 (pIC50) of 7.09.
On to `CCOC(=O)C1=C(C)NC(C)=C(C(=O)OCCOC)C1c1csc2cccnc12` (stereo not shown) [Example 19, 1,4-Dihydro-2,6-dimethyl-4-thieno[3,2-]pyridin-3-yl-3,5-pyridinedicarboxylic acid, 3-ethyl 5-(2-methoxyethyl)ester], for which the “-log IC50” value was determined as 7.0.
Take `COC(=O)C1=C(C)NC(C)=C(C(=O)OC(C)C)C1c1csc2ccncc12` (stereo not shown) [Example 20, 1,4-Dihydro-2,6-dimethyl-4-thieno[3,2-c]pyridin-3-yl-3,5-pyridinedicarboxylic acid, 3-methyl 5-isopropyl ester]: the pIC50 was 7.80.
Same read-out and setting: then `CCOC(=O)C1=C(C)NC(C)=C(C(=O)OCC)C1c1c(C)sc2ccncc12` [Example 6, 1,4-Dihydro-2,6-dimethyl-4-(2-methylthieno[3,2-c]pyridin-3-yl)-3,5-pyridinedicarboxylic acid, diethyl ester], with 6.40; and `C#CCOC(=O)C1=C(C)NC(C)=C(C(=O)OC)C1c1csc2ccncc12` (stereo not shown) [Example 48, 1,4-Dihydro-2,6-dimethyl-4-thieno[3,2-c]pyridin-3-yl-3,5-pyridinedicarboxylic acid, methyl 2-propynyl ester], with 7.04.
Still for that read-out and setting: then `CCOC(=O)C1=C(C)NC(C)=C(C(=O)OCC)C1c1cc2ccccc2s1` [Example 1, 4-Benzo[b]thien-2-yl-1,4-dihydro-2,6-dimethyl-3,5-pyridinedicarboxylic acid, diethyl ester], with 3.96.
In the case of `COC(=O)C1=C(C)NC(C)=C(C(=O)OC(C)c2ccccc2)[C@@H]1c1csc2ccncc12` (stereo partly drawn) [Example 47, (R)-1,4-Dihydro-2,6-dimethyl-4-thieno[3,2-c]pyridin-3-yl-3,5-pyridinedicarboxylic acid, methyl 1-phenylethyl ester], the negative logarithm of the IC50 (pIC50) was 7.31.
Still for that read-out and setting: then `COC(=O)C1=C(C)NC(C)=C(C(=O)OCCN(C)Cc2ccccc2)C1c1csc2ccncc12` (stereo not shown) [Example 31, 1,4-Dihydro-2,6-dimethyl-4-thieno[3,2-c]pyridin-3-yl-3,5-pyridine dicarboxylic acid, 3-methyl 5-(2-[methyl(phenylmethyl)amino]ethyl)ester], with 6.90; and `CCOC(=O)C1=C(C)NC(C)=C(C(=O)OCC)C1c1c(C)sc2ccccc12` [Example 16, 1,4-Dihydro-2,6-dimethyl-4-(2-methylbenzo[b]thien-3-yl)-3,5-pyridinedicarboxylic acid, diethyl ester], with 6.39.
Still for that read-out and setting: then `COC(=O)C1=C(C)NC(C)=C(C(=O)OC)C1c1csc2ccncc12` [Example 9, 1,4-Dihydro-2,6-dimethyl-4-thieno[3,2-c]pyridin-3-yl-3,5-pyridinedicarboxylic acid, dimethyl ester], with 7.00; and `CCOC(=O)C1=C(C)NC(C)=C(C(=O)OCC)C1c1c(Br)sc2ccccc12` [Example 23, 4-(2-Bromobenzo[b]thien-3-yl)-1,4-dihydro-2,6-dimethyl-3,5-pyridinedicarboxylic acid, diethyl ester], with 5.15.
The same measure, in the same setting: then `COCCOC(=O)C1=C(C)NC(C)=C(C(=O)OC(C)C)C1c1csc2ccncc12` (stereo not shown) [Example 37, 1,4-Dihydro-2,6-dimethyl-4-thieno[3,2-c]pyridin-3-yl-3,5-pyridinedicarboxylic acid, 2-methoxyethyl 1-methylethyl ester], with 6.78.
For `CCOC(=O)C1=C(C)NC(C)=C(C(=O)OCC)C1c1csc2ccncc12` [Example 52, 1,4-Dihydro-2,6-dimethyl-4-thieno[3,2-c]pyridin-3-yl-3,5-pyridinedicarboxylic acid, diethyl ester], the “-log IC50” value is reported as 6.94.
`COC(=O)C1=C(C)NC(C)=C(C(=O)OCC(C)C)C1c1csc2ccncc12` (stereo not shown) [Example 43, 1,4-Dihydro-2,6-dimethyl-4-thieno[3,2-c]pyridin-3-yl-3,5-pyridinedicarboxylic acid, methyl 2-methylpropyl ester] showed a negative logarithm of the IC50 (pIC50) of 7.00.
In turn, `CCOC(=O)C1=C(C)NC(C)=C(C(=O)OCC)C1c1csc2cccc([N+](=O)[O-])c12` [Example 28, 1,4-Dihydro-2,6-dimethyl-4-(4-nitrobenzo[b]thien-3-yl)-3,5-pyridinecarboxylic acid, diethyl ester] had a pIC50 of 6.81.
